Where a name gives a salt, the structure may show the parent alone.
Columns and labels:
[1] = target: T1, Human fibrinogen receptor (αIIbβ3) (Homo sapiens, UniProt P05106+P08514); assay: Purified IIb/IIIa receptor assay (solid phase receptor assay, competition with biotinylated vitronectin); type: binding; conditions: read-out: IIb/IIIa IC50
T1 construct: Human fibrinogen receptor (αIIbβ3) was purified from outdated platelets; from tissue; host or cells: outdated human platelets
Outline: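 Competition format: 1 nM biotinylated vitronectin plus test compound (highest 1.0×10^−4 M), 2 h at room temperature on wells coated with platelet-derived αIIbβ3. Buffer was TBS containing 1.0 mM Ca, Mg, Mn, pH 7.4. HRP anti-biotin readout at 450 nm; normalized to maximum binding, four-parameter curve fit.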

[2] = system: platelet rich plasma; assay: Human platelet rich plasma assay (ADP induced platelet aggregation); type: cell-based; conditions: Homo sapiens, Platelet, ADP induced platelet aggregation in human platelet rich plasma; read-out: Human PRP
Outline: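 Citrated platelet-rich plasma from aspirin-free healthy human donors was stirred at 37 °C and preincubated with compound for 1 min. Aggregation was then triggered with ADP (added as a 200 uM solution) and recorded photometrically for 3 min. Dose–response curves were built from % inhibition of the maximal saline-control response.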

T1 sequence (P08514 32-887 limits assumed): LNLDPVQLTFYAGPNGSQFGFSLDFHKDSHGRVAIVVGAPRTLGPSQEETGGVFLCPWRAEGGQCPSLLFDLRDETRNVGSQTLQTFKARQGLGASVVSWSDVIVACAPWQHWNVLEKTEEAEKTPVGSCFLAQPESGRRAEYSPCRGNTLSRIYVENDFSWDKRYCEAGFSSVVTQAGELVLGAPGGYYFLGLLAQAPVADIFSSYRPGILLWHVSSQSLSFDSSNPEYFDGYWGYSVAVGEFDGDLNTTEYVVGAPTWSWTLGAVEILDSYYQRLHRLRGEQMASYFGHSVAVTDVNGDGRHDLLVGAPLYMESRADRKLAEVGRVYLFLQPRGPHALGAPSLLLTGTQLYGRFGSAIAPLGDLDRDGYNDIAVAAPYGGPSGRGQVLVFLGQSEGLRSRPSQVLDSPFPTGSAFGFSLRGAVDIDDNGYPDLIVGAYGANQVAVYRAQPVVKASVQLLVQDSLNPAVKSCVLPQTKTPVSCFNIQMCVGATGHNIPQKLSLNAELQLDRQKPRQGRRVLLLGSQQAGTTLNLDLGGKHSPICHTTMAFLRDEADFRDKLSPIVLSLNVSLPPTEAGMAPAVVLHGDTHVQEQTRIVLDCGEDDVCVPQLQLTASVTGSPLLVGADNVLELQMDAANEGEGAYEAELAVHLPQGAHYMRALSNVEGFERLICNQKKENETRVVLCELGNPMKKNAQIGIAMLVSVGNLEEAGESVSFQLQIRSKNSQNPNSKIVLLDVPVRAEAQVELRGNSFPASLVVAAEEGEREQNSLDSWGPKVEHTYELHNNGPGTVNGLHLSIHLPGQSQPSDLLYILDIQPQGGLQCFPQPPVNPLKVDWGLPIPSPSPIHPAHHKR
T1 sequence (P08514 891-1039 limits assumed): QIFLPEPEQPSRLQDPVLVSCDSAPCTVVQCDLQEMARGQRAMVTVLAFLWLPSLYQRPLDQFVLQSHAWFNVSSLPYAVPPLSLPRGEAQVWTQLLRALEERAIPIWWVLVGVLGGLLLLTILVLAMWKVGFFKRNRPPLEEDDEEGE
T1 sequence (P05106 27-788): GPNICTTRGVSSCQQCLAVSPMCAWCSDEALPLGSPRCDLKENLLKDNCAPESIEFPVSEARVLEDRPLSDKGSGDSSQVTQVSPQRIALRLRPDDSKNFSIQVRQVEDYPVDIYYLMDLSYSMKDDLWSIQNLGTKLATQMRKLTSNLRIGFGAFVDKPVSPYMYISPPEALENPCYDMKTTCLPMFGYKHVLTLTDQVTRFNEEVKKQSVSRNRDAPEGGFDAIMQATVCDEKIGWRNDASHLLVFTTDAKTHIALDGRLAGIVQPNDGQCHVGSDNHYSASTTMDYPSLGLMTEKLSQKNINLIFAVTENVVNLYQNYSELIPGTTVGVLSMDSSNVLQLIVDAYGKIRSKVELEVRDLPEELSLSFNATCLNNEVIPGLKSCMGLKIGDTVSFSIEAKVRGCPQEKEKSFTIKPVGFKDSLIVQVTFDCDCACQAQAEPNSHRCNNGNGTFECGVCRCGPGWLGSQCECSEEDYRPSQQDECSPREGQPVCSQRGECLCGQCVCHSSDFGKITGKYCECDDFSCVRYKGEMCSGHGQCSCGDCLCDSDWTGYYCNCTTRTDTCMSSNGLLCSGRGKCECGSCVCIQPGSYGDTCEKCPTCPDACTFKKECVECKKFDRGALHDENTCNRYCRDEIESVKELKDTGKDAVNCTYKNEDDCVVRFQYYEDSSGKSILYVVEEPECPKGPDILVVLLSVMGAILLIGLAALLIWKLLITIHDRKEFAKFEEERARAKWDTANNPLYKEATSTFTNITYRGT

| IC50 [1] | IC50 [2] | Structure (SMILES) |
| --- | --- | --- |
| 1.89 nM | 57500 nM | N=C(N)Nc1cccc(C(=O)NCC(=O)NC(CC(=O)O)c2cnc3ccccc3c2)c1 (stereo not drawn) [Example 99, β-[[2-[[[3-[(aminoiminomethyl)amino]phenyl]carbonyl]amino]acetyl]amino]quinoline-3-propanoic acid, bis(trifluoroacetate)salt] |
| 65.3 nM | > 200000 nM | N=C(N)Nc1cccc(C(=O)NCC(=O)NC(CC(=O)O)c2ccc3ccccc3c2)c1 (racemic) [Example 56, (±)β-[[2-[[[3-[(aminoiminomethyl)amino]phenyl]carbonyl]amino]acetyl]amino]naphthalene-2-propanoic acid, trifluoroacetate salt] |
| 4270 nM | > 200000 nM | O=C(O)CC(NC(=O)CNC(=O)c1cccc(NC(=O)NCc2ccccc2)c1)c1cccnc1 (racemic) [Example 47, (±)β-[[2-[[[3-[[[(phenylmethyl)amino]carbonyl]amino]phenyl]carbonyl]amino]acetyl]amino]pyridine-3-propanoic acid, hydrochloride salt] |
| 595 nM | > 200000 nM | O=C(O)CC(NC(=O)CNC(=O)c1cccc(NC2=NCCCCC2)c1)c1cccnc1 (racemic) [Example 12, (±)β-[[2-[[[3-[(3,4,5,6-tetrahydro-2H-azepin-7-yl)amino]phenyl]carbonyl]amino]acetyl]amino]pyridine-3-propanoic acid, bis(trifluoroacetate)salt] |
| 172 nM | > 200000 nM | N=C(N)Nc1cccc(C(=O)NCC(=O)NC(CC(=O)O)c2ccsc2)c1 (racemic) [Example 59, (±)β-[[2-[[[3-[(aminoiminomethyl)amino]phenyl]carbonyl]amino]acetyl]amino]thiophene-3-propanoic acid, trifluoroacetate salt] |
| 137 nM | > 200000 nM | O=C(O)CC(NC(=O)CNC(=O)c1cccc(NC2=NCCC2)c1)c1cccnc1 (stereo not drawn) [Example 17, β-[[2-[[[3-[(3,4-dihydro-2H-pyrrol-5-yl)amino]phenyl]carbonyl]amino]acetyl]amino]pyridine-3-propanoic acid, bis(trifluoroacetate)salt] |
| 1680 nM | > 200000 nM | NC(=O)Nc1cccc(C(=O)NCC(=O)NC(CC(=O)O)c2cccnc2)c1 (stereo not drawn) [Example 46, β-[[2-[[[3-(aminocarbonylamino)phenyl]carbonyl]amino]acetyl]amino]pyridine-3-propanoic acid, hydrochloride salt] |
| 9.83 nM | 73300 nM | N=C(N)Nc1cc(C(=O)NCC(=O)NC(CC(=O)O)c2cccnc2)c2ccccc2c1 (racemic) [Example 8, (±)β-[[2-[[[3-[(aminoiminomethyl)amino]naphthalen-1-yl]carbonyl]amino]acetyl]amino]pyridine-3-propanoic acid, bis(trifluoroacetate)salt] |
| 192 nM | > 200000 nM | N=C(N)Nc1cccc(C(=O)NCC(=O)NC(CC(=O)O)c2cccs2)c1 (racemic) [Example 61, (±)β-[[2-[[[3-[(aminoiminomethyl)amino]phenyl]carbonyl]amino]acetyl]amino]thiophene-2-propanoic acid, trifluoroacetate salt] |
| 202 nM | > 200000 nM | N=C(N)Nc1cccc(C(=O)NCC(=O)N[C@@H](CC(=O)O)CS(=O)(=O)c2ccccc2C(=O)O)c1 [Example 71, 2-[[2S-[[2-[[[3-[(aminoiminomethyl)amino]phenyl]carbonyl]amino]acetyl]amino]-2-(carboxymethyl)ethyl]sulfonyl]benzoic acid, TFA salt] |
| 424 nM | > 200000 nM | C#C[C@H](CC(=O)O)NC(=O)CNC(=O)c1cccc(NC2=NCCCCC2)c1 [Example 30, βS-[[2-[[[3-[(3,4,5,6-tetrahydro-2H-azepin-7-yl)amino]phenyl]carbonyl]amino]acetyl]amino]-4-pentynoic acid, trifluoroacetate salt] |
| 139 nM | > 200000 nM | O=C(O)CC(NC(=O)CNC(=O)c1cccc(NC2=NCCCCC2)c1)c1ccc2c(c1)OCO2 (racemic) [Example 14, (±)β-[[2-[[[3-[(3,4,5,6-tetrahydro-2H-azepin-7-yl)amino]phenyl]carbonyl]amino]acetyl]amino]-1,3-benzodioxole-5-propanoic acid, TFA salt] |
| 139 nM | > 200000 nM | N=C(N)Nc1cccc(C(=O)NCC(=O)NC(CC(=O)O)c2ccoc2)c1 (racemic) [Example 52, (±)β-[[2-[[[3-[(aminoiminomethyl)amino]phenyl]carbonyl]amino]acetyl]amino]furan-3-propanoic acid, trifluoroacetate salt] |
| 3830 nM | > 200000 nM | O=C(O)CC(NC(=O)CNC(=O)c1cccc(NC2=NCCCCC2)c1)c1ccccc1 (racemic) [Example 15, (±)β-[[2-[[[3-[(3,4,5,6-tetrahydro-2H-azepin-7-yl)amino]phenyl]carbonyl]amino]acetyl]amino]benzenepropanoic acid, trifluoroacetate salt] |
| 92.3 nM | > 200000 nM | Cc1ccc(S(=O)(=O)CCC(CC(=O)O)NC(=O)CNC(=O)c2cccc(NC(=N)N)c2)cc1 (racemic) [Example 67, (±)3-[[2-[[[3-[(aminoiminomethyl)amino]phenyl]carbonyl]amino]acetyl]amino]-5-[(4-methylphenyl)sulfonyl]pentanoic acid, trifluoroacetate salt] |
| 1640 nM | > 200000 nM | C#C[C@@H](CC(=O)O)NC(=O)CNC(=O)c1cccc(NC(=N)N)c1 [Example 43, 3R-[[2-[[[(3-[(aminoiminomethyl)amino]phenyl]carbonyl]amino]acetyl]amino]-4-pentynoic acid, hydrochloride salt] |
| 39.5 nM | 167000 nM | C#C[C@H](CC(=O)O)NC(=O)CNC(=O)c1cccc(NC(=N)N)c1 [Example 45, 3S-[[2-[[[3-[(aminoiminomethyl)amino]phenyl]carbonyl]amino]acetyl]amino]-4-pentynoic acid, hydrochloride salt] |
| 16.4 nM | > 200000 nM | N=C(N)Nc1cccc(C(=O)NCC(=O)NC(CCS(=O)(=O)c2ccccc2C(=O)O)CC(=O)O)c1 (racemic) [60(C), (±)2-[3-[[2-[[[3-[(aminoiminomethyl)amino]phenyl]carbonyl]amino]acetyl]amino]-4-carboxybutyl]sulfonyl]benzoic acid, trifluoroacetate] |
| 170 nM | > 200000 nM | Cc1ccc(S(=O)(=O)NCC(CC(=O)O)NC(=O)CNC(=O)c2cccc(NC(=N)N)c2)cc1 (stereo not drawn) [Example 65, 3-[[2-[[[3-[(aminoiminomethyl)amino]phenyl]carbonyl]amino]acetyl]amino]-4-[[(4-methylphenyl)sulfonyl]amino]butanoic acid, trifluoroacetate salt] |
| 2940 nM | > 200000 nM | NC(=S)Nc1cccc(C(=O)NCC(=O)NC(CC(=O)O)c2cccnc2)c1 (stereo not drawn) [Example 114, β-[[2-[[[3-[(aminothioxomethyl)amino]phenyl]carbonyl]amino]acetyl]amino]pyridine-3-propanoic acid, trifluoroacetate salt] |
| 54.4 nM | > 200000 nM | O=C(O)CC(NC(=O)CNC(=O)c1cccc(NC2=NCCN2)c1)c1cccnc1 (racemic) [Example 10, (±)β-[[2-[[[3-[(4,5-dihydro-1H-imidazol-2-yl)amino]phenyl]carbonyl]amino]acetyl]amino]pyridine-3-propanoic acid, bis(trifluoroacetate)salt] |
| 945 nM | > 200000 nM | Cc1ccc(O)c(C(CC(=O)O)NC(=O)CNC(=O)c2cccc(NC(=N)N)c2)c1 (racemic) [Example 88, (±)β-[[2-[[[3-[(aminoiminomethyl)amino]phenyl]carbonyl]amino]acetyl]amino]-2-hydroxy-5-methylbenzenepropanoic acid, trifluoroacetate salt] |
| 73.7 nM | > 100000 nM | Cc1ccc(SCCC(CC(=O)O)NC(=O)CNC(=O)c2cccc(NC(=N)N)c2)cc1 (racemic) [Example 66, (±)3-[[2-[[[3-[(aminoiminomethyl)amino]phenyl]carbonyl]amino]acetyl]amino]-5-[(4-methylphenyl)thio]pentanoic acid, trifluoroacetate salt] |
| 97.7 nM | > 200000 nM | Cc1ccc(C(=O)NCC(=O)NC(CC(=O)O)c2cccnc2)cc1NC(=N)N (racemic) [Example 83, (±)β-[[2-[[[3-[(aminoiminomethyl)amino]-4-methylphenyl]carbonyl]amino]acetyl]amino]pyridine-3-propanoic acid, bis(trifluoroacetate)salt] |
| 58.6 nM | > 200000 nM | N=C(NCc1ccccc1)Nc1cccc(C(=O)NCC(=O)NC(CC(=O)O)c2cccnc2)c1 (racemic) [Example 24, (±)β-[[2-[[[3-[[imino[(phenylmethyl)amino]methyl]amino]phenyl]carbonyl]amino]acetyl]amino]pyridine-3-propanoic acid, bis(trifluoroacetate)salt] |
| 473 nM | > 200000 nM | N=C(N)Nc1cccc(C(=O)NCC(=O)NC(CC(=O)O)c2ccccc2)c1 (racemic) [Example 4, (±)β-[[2-[[[3-[(aminoiminomethyl)amino]phenyl]carbonyl]amino]acetyl]amino]benzene-propanoic acid, trifluoroacetate salt] |
| 1580 nM | > 200000 nM | N=C(N)Nc1cccc(C(=O)NCC(=O)NC(CC(=O)O)c2cc(C(F)(F)F)cc(C(F)(F)F)c2)c1 (racemic) [Example 36, (±)β-[[2-[[[3-[(aminoiminomethyl)amino]phenyl]carbonyl]amino]acetyl]amino]-3,5-bis(trifluoromethyl)benzenepropanoic acid, trifluoroacetate salt] |

Reference: patent US6831199B1, “Pyrimidine compounds and derivatives thereof” (G. D. Searle & Co., priority 1995, dated 2004)
